Source: patent US7220563B2 (priority 2002, dated 2007)

System: recombinant GAO
Assay type: biochemical

Row | Molecule | effect on activation of the recombinant GAO | also measured
1 | O=S(=O)([O-])[O-].[Cu+2] [CuSO4, copper sulfate] | – | concentration sufficient to activate recombinant GAO: 0.1 mM; effect on GAO activity: slightly inhibited; preferred concentration for activating crude enzyme solution: 0.4 mM
2 | O=C(O)CN(CCN(CC(=O)O)CC(=O)O)CC(=O)O [EDTA] | did not affect activation | –
3 | cobalt | did not affect activation | –
4 | iron | did not affect activation | –
5 | manganese | did not affect activation | –
6 | nickel | did not affect activation | –
